This note sets out measurements from patent US20220267260A1, “COMPOUNDS CONTAINING A SULFONIC GROUP AS KAT INHIBITORS” (Epizyme, Inc., priority 2016, published 2022).

Usually pIC50 stands for the negative decadic logarithm of the IC50, by convention in mol/L. High values mean a small IC50, low ones a large IC50.

pIC50: −log10 of the molar value.

One experiment has as its target T1, KAT5 (Homo sapiens, UniProt Q92993).
T1 construct: His-TEV tag (N, cleaved yes); made in house
Put plainly: KAT5 enzyme inhibition assay (SAMDI mass spectrometry). The class given is biochemical. To be noted: His-TEV-FL KAT5-Flag enzyme construct.

The target in the next experiment is T2, KAT6A (Homo sapiens, UniProt Q92794).
T2 construct: His-TEV tag (N, cleaved yes); made in house
T2 sequence (Q92794 with tags, fused parts or gaps): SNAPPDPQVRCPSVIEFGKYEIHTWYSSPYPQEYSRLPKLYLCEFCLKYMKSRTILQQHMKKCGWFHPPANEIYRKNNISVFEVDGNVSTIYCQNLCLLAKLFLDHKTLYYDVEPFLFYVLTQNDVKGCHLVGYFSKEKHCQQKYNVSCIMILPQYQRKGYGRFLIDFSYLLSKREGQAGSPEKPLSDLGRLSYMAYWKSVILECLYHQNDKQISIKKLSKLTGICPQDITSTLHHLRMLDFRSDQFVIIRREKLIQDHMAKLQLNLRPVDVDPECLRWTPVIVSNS
Put plainly: KAT6A enzyme inhibition assay (SAMDI mass spectrometry). The note with it: His-TEV-KAT6A 501-784 enzyme construct. The class given is biochemical.

T1 sequence (Q92993 with tags, fused parts or gaps): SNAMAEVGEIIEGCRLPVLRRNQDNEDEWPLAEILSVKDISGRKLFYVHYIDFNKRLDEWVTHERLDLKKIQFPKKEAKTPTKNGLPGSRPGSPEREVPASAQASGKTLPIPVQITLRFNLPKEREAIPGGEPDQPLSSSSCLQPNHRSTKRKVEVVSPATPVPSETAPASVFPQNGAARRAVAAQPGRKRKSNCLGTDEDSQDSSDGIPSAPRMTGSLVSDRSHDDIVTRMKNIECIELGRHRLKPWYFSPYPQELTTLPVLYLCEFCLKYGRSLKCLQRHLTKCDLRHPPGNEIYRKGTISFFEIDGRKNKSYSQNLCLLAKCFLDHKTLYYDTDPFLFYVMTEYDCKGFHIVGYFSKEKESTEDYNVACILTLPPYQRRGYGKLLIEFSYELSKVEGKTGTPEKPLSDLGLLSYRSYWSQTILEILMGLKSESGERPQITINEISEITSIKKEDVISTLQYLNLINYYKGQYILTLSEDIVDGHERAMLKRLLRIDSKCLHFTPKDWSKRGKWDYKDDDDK

For the compound `COCCN1CC(CS(=O)(=O)NNC(=O)c2cc(-c3ccccc3)cc(C)c2F)C1` [Compound I-208], the pIC50 at KAT5 and against KAT6A was 4.30 to 5.00 each time.

In the case of `Cc1cc(-c2ccccc2)cc(C(=O)NNS(=O)(=O)c2ccccn2)c1F` [Compound I-209], the pIC50 at KAT5 and against KAT6A was ≥ 5.00 throughout.

For the compound `Cc1cc(-c2ccccc2)cc(C(=O)NNS(=O)(=O)c2cccc(OCc3ccccc3)c2)c1F` [Compound I-210], the negative logarithm of the IC50 (pIC50) on KAT5 and against KAT6A was ≥ 5.00 throughout.

Turning to `Cc1cc(-c2ccccc2)cc(C(=O)NNS(=O)(=O)c2ccc(O)cc2)c1F` [Compound I-211], the pIC50 against KAT5 and at KAT6A was ≥ 5.00 each time.

Regarding `O=C(NS(=O)(=O)Nc1ccccc1)c1c(F)ccc(-c2ccccc2)c1F` [Compound I-212], the pIC50 is < 4.00 against KAT5 and 4.00 to 4.30 at KAT6A.

Take `Cc1cc(-c2ccccc2)cc(C(=O)Nc2cn[nH]c2)c1F` [Compound I-213]: the pIC50 against KAT5 and at KAT6A was < 4.00 each time.

On to `Cc1cc(-c2ccccc2)cc(C(=O)NNS(=O)(=O)c2cccc(F)c2)c1F` [Compound I-214], for which the pIC50 at KAT5 and on KAT6A was ≥ 5.00 each time.

For the compound `Cc1cc(-c2ccccc2)cc(C(=O)N(C)NS(=O)(=O)c2ccccc2)c1F` [Compound I-215], the negative-log IC50 (pIC50) is < 4.00 on KAT5 and 4.30 to 5.00 on KAT6A.

`CCc1cc(-c2ccccc2)cc(C(=O)NNS(=O)(=O)c2ccccc2)c1F` [Compound I-216]: the pIC50 on KAT5 and on KAT6A was ≥ 5.00 throughout.

With `Cc1cc(-c2ccccc2)cc(C(=O)NNS(=O)(=O)c2ccc(Cl)cc2)c1F` [Compound I-217], the pIC50 at KAT5 and at KAT6A was ≥ 5.00 throughout.

Turning to `CNC(=O)c1cccc(S(=O)(=O)NNC(=O)c2cc(-c3ccccc3)cc(C)c2F)c1` [Compound I-219], the pIC50 on KAT5 and against KAT6A was ≥ 5.00 each time.

Regarding `O=C(NNS(=O)(=O)c1ccccc1)c1cc(-c2ccccc2)cc(Cl)c1F` [Compound I-220], the pIC50 at KAT5 and against KAT6A was ≥ 5.00 throughout.

Regarding `CCc1cccc(S(=O)(=O)NNC(=O)c2cc(-c3ccccc3)cc(C)c2F)c1` [Compound I-221], the results for the pIC50 at KAT5 and on KAT6A were 4.30 to 5.00 and ≥ 5.00, respectively.

For the compound `COc1ccc(Cn2cnc(-c3ccc(F)c(C(=O)NNS(=O)(=O)c4ccccc4)c3F)c2)cc1` [Compound I-222], the figures for the pIC50 on KAT5 and against KAT6A were 4.00 to 4.30 and ≥ 5.00, respectively.

On to `Cc1cc(-c2ccccc2)c(F)c(C(=O)NNS(=O)(=O)c2ccccc2)c1F` [Compound I-223], for which the pIC50 against KAT5 and at KAT6A was ≥ 5.00 in each case.

Regarding `Cc1cc(-c2ccccc2)cc(C(=O)NNS(=O)(=O)CC2CCN(C(=O)OC(C)(C)C)CC2)c1F` [Compound I-224], the pIC50 at KAT5 and against KAT6A was ≥ 5.00 in each case.

On to `Cc1c(-c2ccccc2)ccc(F)c1C(=O)NNS(=O)(=O)c1ccccc1Cl` [Compound I-225], for which the pIC50 on KAT5 is 4.00 to 4.30; against KAT6A, 4.30 to 5.00.

With `Cc1cccc(S(=O)(=O)NNC(=O)c2cccc(-c3ccccc3)c2F)c1` [Compound I-226], the figures for the pIC50 on KAT5 and at KAT6A were < 4.00 and ≥ 5.00, respectively.

For `Cc1cc(-c2ccccc2)cc(C(=O)NNS(=O)(=O)CC2CCCCC2)c1F` [Compound I-227], the pIC50 on KAT5 and against KAT6A was ≥ 5.00 each time.

Turning to `CCS(=O)(=O)NNC(=O)c1c(F)ccc(-c2ccccc2)c1C` [Compound I-228], the negative logarithm of the IC50 (pIC50) at KAT5 and against KAT6A was < 4.00 throughout.

`Cc1cccc(-c2cccc(C(=O)NNS(=O)(=O)c3ccccc3)c2F)c1` [Compound I-229]: the negative-log IC50 (pIC50) against KAT5 and at KAT6A was 4.30 to 5.00 in each case.

Turning to `O=C(NNS(=O)(=O)c1ccccc1)c1cnn(Cc2ccccc2)c1` [Compound I-230], the pIC50 against KAT5 and on KAT6A was < 4.00 in each case.

For `Cc1c(-c2ccccc2)ccc(F)c1C(=O)NNS(=O)(=O)C(C)C` [Compound I-231], the pIC50 against KAT5 and at KAT6A was < 4.00 throughout.

Turning to `COc1cccc(S(=O)(=O)NNC(=O)c2cc(-c3ccccc3)cc(C)c2F)c1` [Compound I-232], the pIC50 against KAT5 and against KAT6A was ≥ 5.00 throughout.

Consider `O=C(NNS(=O)(=O)c1ccccc1)c1c(F)ccc(-c2ccccc2)c1F` [Compound I-233], for which the pIC50 against KAT5 is 4.30 to 5.00; on KAT6A, ≥ 5.00.

Turning to `O=C(NNS(=O)(=O)c1ccccc1)c1cccc(-c2ccccc2)c1F` [Compound I-234], the negative-log IC50 (pIC50) was < 4.00 on KAT5 and ≥ 5.00 against KAT6A.

Consider `Cc1cc(-c2ccccc2)cc(C(=O)NNS(=O)(=O)c2cccc(O)c2)c1F` [Compound I-235], for which the pIC50 on KAT5 and against KAT6A was ≥ 5.00 in each case.

In the case of `O=C(NNS(=O)(=O)c1ccccc1)c1c(F)ccc2ccccc12` [Compound I-236], the pIC50 against KAT5 and at KAT6A was < 4.00 each time.

In the case of `COc1ccccc1S(=O)(=O)NNC(=O)c1c(F)ccc(-c2ccccc2)c1C` [Compound I-237], the negative-log IC50 (pIC50) against KAT5 was < 4.00; on KAT6A it was 4.00 to 4.30.

Take `Cc1cc(-c2ccccc2)cc(C(=O)NNS(=O)(=O)c2ccc(C(N)=O)cc2)c1F` [Compound I-239]: the pIC50 against KAT5 and against KAT6A was ≥ 5.00 in each case.

On to `Cc1c(-c2ccccc2)ccc(F)c1C(=O)NNS(=O)(=O)c1ccc2ccccc2c1` [Compound I-240], for which the pIC50 against KAT5 and against KAT6A was 4.30 to 5.00 each time.

Turning to `Cc1c(-c2ccccc2)ccc(F)c1C(=O)NNS(=O)(=O)c1ccc(Cl)cc1` [Compound I-241], the pIC50 is 4.00 to 4.30 against KAT5 and 4.30 to 5.00 against KAT6A.

On to `Cc1cc(-c2ccccc2)cc(C(=O)NN(C)S(=O)(=O)c2ccccc2)c1F` [Compound I-242], for which the pIC50 against KAT5 is < 4.00; against KAT6A, 4.30 to 5.00.

For `Cc1c(-c2ccccc2)ccc(F)c1C(=O)NNS(=O)(=O)C1CCC1` [Compound I-243], the negative-log IC50 (pIC50) against KAT5 and on KAT6A was < 4.00 throughout.

Consider `CNC(=O)c1ccc(S(=O)(=O)NNC(=O)c2cc(-c3ccccc3)cc(C)c2F)cc1` [Compound I-244], for which the pIC50 against KAT5 was 4.30 to 5.00; against KAT6A it was ≥ 5.00.

In the case of `O=S(=O)(NNCc1ccccc1F)c1ccccc1` [Compound I-245], the negative logarithm of the IC50 (pIC50) against KAT5 and against KAT6A was < 4.00 throughout.

On to `O=C(NNS(=O)(=O)c1ccc2ccccc2c1)c1cccc(-c2ccccc2)c1` [Compound I-246], for which the pIC50 against KAT5 is 4.00 to 4.30; against KAT6A, ≥ 5.00.

Take `COc1ccc(Cn2ncc3c(C(=O)NNS(=O)(=O)c4ccccc4)cc(-c4ccccc4)cc32)cc1` [Compound I-247]: the pIC50 is 4.00 to 4.30 on KAT5 and 4.30 to 5.00 on KAT6A.

Regarding `COc1ccc(Cn2cnc3c(C(=O)NNS(=O)(=O)c4ccccc4)cc(-c4ccccc4)cc32)cc1` [Compound I-248], the pIC50 was 4.00 to 4.30 at KAT5 and 4.30 to 5.00 against KAT6A.

Consider `Cc1c(-c2ccccc2)ccc(F)c1C(=O)NNS(=O)(=O)C1CCCC1` [Compound I-249], for which the pIC50 on KAT5 and against KAT6A was < 4.00 each time.

In the case of `O=C(NNS(=O)(=O)c1ccccc1)c1cc(-c2ccccc2)cc(F)c1F` [Compound I-250], the pIC50 against KAT5 and against KAT6A was ≥ 5.00 in each case.

For the compound `Cc1c(-c2ccccc2)ccc(F)c1C(=O)NNS(=O)(=O)c1ccccc1` [Compound I-251], the pIC50 against KAT5 was 4.00 to 4.30; at KAT6A, ≥ 5.00.

For `O=C(NNS(=O)(=O)c1ccccc1)c1ncccc1F` [Compound I-252], the pIC50 against KAT5 is < 4.00; on KAT6A, 4.00 to 4.30.

Turning to `O=C(NNS(=O)(=O)c1ccccc1)c1cc(-c2ccccc2)ccc1F` [Compound I-253], the pIC50 at KAT5 is 4.00 to 4.30; on KAT6A, 4.30 to 5.00.

As to `O=C(NNS(=O)(=O)c1ccccc1)N1CCCCC1` [Compound I-254], the pIC50 against KAT5 and against KAT6A was < 4.00 throughout.

For the compound `Cc1cc(-c2ccccc2)cc(C(=O)NNS(=O)(=O)c2cccc(C(=O)N(C)C)c2)c1F` [Compound I-255], the negative logarithm of the IC50 (pIC50) against KAT5 and against KAT6A was ≥ 5.00 each time.

As for `Cc1cc(-c2ccccc2)cc(C(=O)NNS(=O)(=O)c2cccc(C(=O)O)c2)c1F` [Compound I-256], the figures for the pIC50 at KAT5 and against KAT6A were 4.00 to 4.30 and ≥ 5.00, respectively.

As for `Cc1cc(-c2ccccc2)cc(C(=O)N[C@@H](C#N)C2CCCCC2)c1F` [Compound I-257], the pIC50 against KAT5 and at KAT6A was < 4.00 throughout.

As to `Cc1c(-c2ccccc2)ccc(F)c1C(=O)NNS(=O)(=O)CC1CCCCC1` [Compound I-258], the negative logarithm of the IC50 (pIC50) against KAT5 and against KAT6A was 4.00 to 4.30 each time.

`Cn1cnc(-c2ccc(F)c(C(=O)NNS(=O)(=O)c3ccccc3)c2F)c1` [Compound I-259]: the pIC50 on KAT5 is 4.30 to 5.00; at KAT6A, ≥ 5.00.

In the case of `CC(C)C(Cc1ccccc1)C(=O)NNS(=O)(=O)c1ccccc1` (centres unmarked) [Compound I-260], the pIC50 at KAT5 and against KAT6A was < 4.00 each time.

Regarding `Cc1cc(-c2ccccc2)cc(C(=O)NNS(=O)(=O)c2cccc(CO)c2)c1F` [Compound I-261], the pIC50 at KAT5 and against KAT6A was ≥ 5.00 each time.

For the compound `O=C(NNS(=O)(=O)c1ccccc1)c1cc2ccccc2cc1F` [Compound I-262], the negative logarithm of the IC50 (pIC50) at KAT5 was 4.00 to 4.30; at KAT6A it was ≥ 5.00.

On to `Cc1cc(-c2ccccc2)cc(C(=O)NNS(=O)(=O)c2ccccc2Cl)c1F` [Compound I-263], for which the pIC50 on KAT5 and against KAT6A was ≥ 5.00 each time.

Regarding `O=C(NNS(=O)(=O)c1ccccc1)c1c(F)ccc(-c2ncc[nH]2)c1F` [Compound I-264], the pIC50 against KAT5 was < 4.00; at KAT6A, 4.00 to 4.30.

Consider `CC(C)C(Cc1ccccc1)CS(=O)(=O)NNC(=O)c1ccccc1` (centres unmarked) [Compound I-265], for which the pIC50 on KAT5 and against KAT6A was < 4.00 in each case.

As for `Cc1cccc(F)c1C(=O)NNS(=O)(=O)CC(Cc1ccccc1)C(C)C` (centres unmarked) [Compound I-266], the pIC50 at KAT5 and against KAT6A was < 4.00 throughout.

`Cc1cc(-c2ccccc2)cc(C(=O)NNS(=O)(=O)CC2CCOCC2)c1F` [Compound I-267]: the pIC50 on KAT5 and against KAT6A was ≥ 5.00 throughout.
